Source: patent publication US9827312B2, “Method for carrying therapeutic substances into cells” (MAGFORCE AG, priority 2005, dated 2017)

Legend:
Details in all cases: procedure of example 2
[1] = system: glioblastoma human cell line RUSIRS1; assay: Increase in the activity of cytostatics with nanoparticles (Table 1), RUSIRS1; format: cell-based
Description: (§1) The experiments in vitro were carried out with the cell lines BT20 (breast carcinoma) and WiDr (colon carcinoma). The tumor cells were taken from tumor tissue of a patient and cultivated as described in DE 199 12 798 C1. 2×10^6 cells, respectively, were prepared in a 75 cm^3 cell culture bottle with 25 ml of cell culture medium (RPMI+10% FBS+1.2 ml of pyruvate for WiDr cells, or respectively BME+10% FBS+pyruvate+5 ml of non-essential amino acids+5 ml glutamine for BT20 cells) for testing the efficacy of the cefamandole/nanoparticle mixture. 136 μl of magnetic fluid MFL AS M01 (iron oxide nanoparticle coated with polycondensed N-(2-aminoethyl)-3-(trimethoxysilyl)propylamine, manufacturer: MagForce Nanotechnologies GmbH, Berlin, Germany) (cFe=2 mol/l) and 390 μl of cefamandole solution (stock solution 1 mg/ml in 0.9% NaCl) were added to said cell suspension.
(§2) Corresponding to the experiment procedure according to example 2, the following […] were tested in vitro with the active ingredients listed in table 1: a) glioblastoma human cell line RUSIRS 1; b) breast carcinoma cell lines BT20; c) colon carcinoma cell line WiDR; d) bronchial carcinoma cells NSCLC, e) rectal carcinoma cells and f) prostate carcinoma cell line DU 145.
(§3) In all cases, an increased activity of the cytostatic could be observed. The increase in activity is indicated in parentheses after the respective cytostatic, wherein (+) means an increase of about 5% to 80% and (++) means an increase of 80% to 500%.

[2] = system: breast carcinoma cell lines BT20; assay: Increase in the activity of cytostatics with nanoparticles (Table 1), BT20; format: cell-based, human
Description: as §1, §2, §3

[3] = system: prostate carcinoma cell line DU 145; assay: Increase in the activity of cytostatics with nanoparticles (Table 1), DU 145; format: cell-based
Description: as §1, §2, §3

neuroglioma cell line H4 = assay: Increase in the activity of cytostatics with nanoparticles (Table 1), H4; format: cell-based
Description: as §1, §2, §3

[4] = system: bronchial carcinoma cells NSCLC; assay: Increase in the activity of cytostatics with nanoparticles (Table 1), NSCLC; format: cell-based
Description: as §1, §2, §3

rectal carcinoma cells = assay: Increase in the activity of cytostatics with nanoparticles (Table 1), rectal carcinoma; format: cell-based
Description: as §1, §2, §3

[5] = system: colon carcinoma cell line WiDr; assay: Increase in the activity of cytostatics with nanoparticles (Table 1), WiDr; format: cell-based, human
Description: as §1, §2, §3

SMILES	increase in the activity of cytostatics [1]	increase in the activity of cytostatics [2]	increase in the activity of cytostatics [3]	increase in the activity of cytostatics (neuroglioma cell line H4)	increase in the activity of cytostatics [4]	increase in the activity of cytostatics (rectal carcinoma cells)	increase in the activity of cytostatics [5]
Nc1nc2c(ncn2COCCO)c(=O)[nH]1 [acyclovir]	(+) ((+) means an increase of about 5% to 80%)	(+) ((+) means an increase of about 5% to 80%)	(+) ((+) means an increase of about 5% to 80%)	(+) ((+) means an increase of about 5% to 80%)	(+) ((+) means an increase of about 5% to 80%)	(++) ((++) means an increase of 80% to 500%)	(+) ((+) means an increase of about 5% to 80%)
CC[C@@H]1/C=C(\C)C[C@H](C)C[C@H](OC)[C@H]2O[C@@](O)(C(=O)C(=O)N3CCCC[C@H]3C(=O)O[C@H](/C(C)=C/[C@@H]3CC[C@@H](O)[C@H](OC)C3)[C@H](C)[C@@H](O)CC1=O)[C@H](C)C[C@@H]2OC [ascomycin]	(++) ((++) means an increase of 80% to 500%)	(+) ((+) means an increase of about 5% to 80%)	(+) ((+) means an increase of about 5% to 80%)	–	(+) ((+) means an increase of about 5% to 80%)	(+) ((+) means an increase of about 5% to 80%)	(+) ((+) means an increase of about 5% to 80%)
CN1CCCC(n2nc(Cc3ccc(Cl)cc3)c3ccccc3c2=O)CC1 (centres unmarked) [azelastine]	(+) ((+) means an increase of about 5% to 80%)	(+) ((+) means an increase of about 5% to 80%)	(+) ((+) means an increase of about 5% to 80%)	(+) ((+) means an increase of about 5% to 80%)	–	(+) ((+) means an increase of about 5% to 80%)	–
Cn1c(CCCC(=O)O)nc2cc(N(CCCl)CCCl)ccc21 [bendamustine]	(+) ((+) means an increase of about 5% to 80%)	(+) ((+) means an increase of about 5% to 80%)	(+) ((+) means an increase of about 5% to 80%)	–	(+) ((+) means an increase of about 5% to 80%)	–	–
CS(=O)(=O)OCCCCOS(C)(=O)=O [busulfan]	(+) ((+) means an increase of about 5% to 80%)	–	(+) ((+) means an increase of about 5% to 80%)	(+) ((+) means an increase of about 5% to 80%)	(++) ((++) means an increase of 80% to 500%)	–	(+) ((+) means an increase of about 5% to 80%)
O=NN(CCCl)C(=O)NCCCl [carmustine]	(+) ((+) means an increase of about 5% to 80%)	(+) ((+) means an increase of about 5% to 80%)	(+) ((+) means an increase of about 5% to 80%)	(+) ((+) means an increase of about 5% to 80%)	(++) ((++) means an increase of 80% to 500%)	(+) ((+) means an increase of about 5% to 80%)	(+) ((+) means an increase of about 5% to 80%)
COCc1c(C(C)C)nc(C(C)C)c(/C=C/[C@@H](O)C[C@@H](O)CC(=O)O)c1-c1ccc(F)cc1 [cerivastatin]	(+) ((+) means an increase of about 5% to 80%)	(+) ((+) means an increase of about 5% to 80%)	(+) ((+) means an increase of about 5% to 80%)	(+) ((+) means an increase of about 5% to 80%)	(+) ((+) means an increase of about 5% to 80%)	(++) ((++) means an increase of 80% to 500%)	(+) ((+) means an increase of about 5% to 80%)
O=C(O)CCCc1ccc(N(CCCl)CCCl)cc1 [chlorambucil]	(+) ((+) means an increase of about 5% to 80%)	(+) ((+) means an increase of about 5% to 80%)	(+) ((+) means an increase of about 5% to 80%)	(++) ((++) means an increase of 80% to 500%)	(+) ((+) means an increase of about 5% to 80%)	(+) ((+) means an increase of about 5% to 80%)	(++) ((++) means an increase of 80% to 500%)
N.N.[Cl][Pt][Cl] [cisplatin]	(+) ((+) means an increase of about 5% to 80%)	(+) ((+) means an increase of about 5% to 80%)	(+) ((+) means an increase of about 5% to 80%)	(++) ((++) means an increase of 80% to 500%)	(++) ((++) means an increase of 80% to 500%)	(+) ((+) means an increase of about 5% to 80%)	(+) ((+) means an increase of about 5% to 80%)
Nc1nc(Cl)nc2c1ncn2[C@H]1C[C@H](O)[C@@H](CO)O1 [cladribine]	(+) ((+) means an increase of about 5% to 80%)	(+) ((+) means an increase of about 5% to 80%)	(+) ((+) means an increase of about 5% to 80%)	(+) ((+) means an increase of about 5% to 80%)	(++) ((++) means an increase of 80% to 500%)	–	(++) ((++) means an increase of 80% to 500%)
O=C(O)Cc1ccccc1Nc1c(Cl)cccc1Cl [diclofenac]	(+) ((+) means an increase of about 5% to 80%)	–	(+) ((+) means an increase of about 5% to 80%)	(+) ((+) means an increase of about 5% to 80%)	(+) ((+) means an increase of about 5% to 80%)	(++) ((++) means an increase of 80% to 500%)	(+) ((+) means an increase of about 5% to 80%)
Nc1nc(O)c2ncn(COC(CO)CO)c2n1 [ganciclovir]	(++) ((++) means an increase of 80% to 500%)	(+) ((+) means an increase of about 5% to 80%)	(+) ((+) means an increase of about 5% to 80%)	(+) ((+) means an increase of about 5% to 80%)	(+) ((+) means an increase of about 5% to 80%)	(+) ((+) means an increase of about 5% to 80%)	(+) ((+) means an increase of about 5% to 80%)
COC(=O)C1=C(C)NC(C)=C(C(=O)OC)C1c1ccccc1[N+](=O)[O-] [nifedipine]	(+) ((+) means an increase of about 5% to 80%)	(+) ((+) means an increase of about 5% to 80%)	(+) ((+) means an increase of about 5% to 80%)	(+) ((+) means an increase of about 5% to 80%)	(+) ((+) means an increase of about 5% to 80%)	–	(+) ((+) means an increase of about 5% to 80%)
C=CC[C@@H]1/C=C(\C)C[C@H](C)C[C@H](OC)[C@H]2O[C@@](O)(C(=O)C(=O)N3CCCC[C@H]3C(=O)O[C@H](/C(C)=C/[C@@H]3CC[C@@H](O)[C@H](OC)C3)[C@H](C)[C@@H](O)CC1=O)[C@H](C)C[C@@H]2OC [tacrolimus]	(+) ((+) means an increase of about 5% to 80%)	(+) ((+) means an increase of about 5% to 80%)	(+) ((+) means an increase of about 5% to 80%)	(++) ((++) means an increase of 80% to 500%)	(+) ((+) means an increase of about 5% to 80%)	(+) ((+) means an increase of about 5% to 80%)	–
CC/C(=C(\c1ccccc1)c1ccc(OCCN(C)C)cc1)c1ccccc1 [tamoxifen]	(+) ((+) means an increase of about 5% to 80%)	(+) ((+) means an increase of about 5% to 80%)	(+) ((+) means an increase of about 5% to 80%)	(+) ((+) means an increase of about 5% to 80%)	(+) ((+) means an increase of about 5% to 80%)	–	(++) ((++) means an increase of 80% to 500%)
